Biological target: STING (Homo sapiens, UniProt Q86WV6, G230A/H232R/R293Q/R71H)
Test: STING reporter assay: THP1-Dual KO-IFNAR2 cells stimulated with 2′3′cGAMP, luciferase reporter activity
Format: cell-based
Settings: 15 μM 2′3′cGAMP, 24h, class symbols
Procedure: STING pathway activation by the compounds described herein were measured using THP1-Dual™ cells (KO-IFNAR2).
THP1-Dual™ KO-IFNAR2 Cells (obtained from invivogen) were maintained in RPMI, 10% FCS, 5 ml P/S, 2 mM L-glut, 10 mM Hepes, and 1 mM sodium pyruvate. Compounds were spotted in empty 384 well tissue culture plates (Greiner 781182) by Echo for a final concentration of 0.0017-100 μM. Cells were plated into the TC plates at 40 μL per well, 2×10E6 cells/mL. For activation with STING ligand, 2′3′cGAMP (MW 718.38, obtained from Invivogen), was prepared in Optimem media.
The following solutions were prepared for each 1×384 plate: • Solution A: 2 mL Optimem with one of the following stimuli: • 60 uL of 10 mM 2′3′cGAMP ->150 μM stock • Solution B: 2 mL Optimem with 60 μL Lipofectamine 2000->Incubate 5 min at RT
2 mL of solution A and 2 ml Solution B was mixed and incubated for 20 min at room temperature (RT). 20 uL of transfection solution (A+B) was added on top of the plated cells, with a final 2′3′cGAMP concentration of 15 μM. The plates were then centrifuged immediately at 340 g for 1 minute, after which they were incubated at 37° C., 5% CO2, >98% humidity for 24h. Luciferase reporter activity was then measured. EC50 values were calculated by using standard methods known in the art.
Luciferase reporter assay: 10 μL of supernatant from the assay was transferred to white 384-plate with flat bottom and squared wells. One pouch of QUANTI-Luc™ Plus was dissolved in 25 mL of water. 100 μL of QLC Stabilizer per 25 mL of QUANTI-Luc™ Plus solution was added. 50 μL of QUANTI-Luc™ Plus/QLC solution per well is then added. Luminescence is measured on a Platereader (e.g., Spectramax I3X (Molecular Devices GF3637001)).
Luciferase reporter activity was then measured. EC50 values were calculated by using standard methods known in the art.

Chain of STING (Q86WV6 whole entry R71H/G230A/H232R/R293Q): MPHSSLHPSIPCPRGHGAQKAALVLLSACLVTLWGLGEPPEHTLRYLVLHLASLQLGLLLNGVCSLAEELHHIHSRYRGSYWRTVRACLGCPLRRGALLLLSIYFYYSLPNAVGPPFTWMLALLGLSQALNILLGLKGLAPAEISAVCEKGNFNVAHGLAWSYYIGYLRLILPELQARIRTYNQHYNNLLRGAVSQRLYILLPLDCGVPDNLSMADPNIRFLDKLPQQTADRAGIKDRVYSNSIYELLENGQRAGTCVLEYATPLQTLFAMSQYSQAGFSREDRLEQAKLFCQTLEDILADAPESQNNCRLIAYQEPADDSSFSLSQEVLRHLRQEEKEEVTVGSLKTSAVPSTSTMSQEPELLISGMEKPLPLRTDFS

Row | Structure (SMILES) | EC50
1 | O=C(Nc1ccc(C(F)(F)F)cc1)Nc1ccc2c(F)c[nH]c2c1 [Compound 242, 3-(3-fluoro-1H-indol-6-yl)-1-[4-(trifluoromethyl)phenyl]urea] | 0.2 to 1 µM
2 | O=C(Nc1ccc2cc[nH]c2c1)NC1CCC2(CCCCC2)OC1 (stereo not shown) [Compound 243] | 5 to 100 µM
3 | N#Cc1cc(NC(=O)Nc2ccc(C(F)(F)F)cc2)cc2[nH]ccc12 [Compound 245] | 0.04 to 0.2 µM
4 | O=C(Nc1ccc(C(F)(F)F)cc1)Nc1cc(F)c2cc[nH]c2c1 [Compound 246] | 0.2 to 1 µM
5 | O=C(Nc1ccc2cc[nH]c2c1)Nc1ccc(N2CCC(F)(F)CC2)cn1 [Compound 249] | 1 to 5 µM
6 | O=C(Nc1ccc(C(F)(F)F)cc1)Nc1cc(Cl)c2cc[nH]c2c1 [Compound 251] | 0.04 to 0.2 µM
7 | N#Cc1cc2ccc(NC(=O)Nc3ccc(C(F)(F)F)cc3)cc2[nH]1 [Compound 255] | 5 to 100 µM
8 | CC(=O)n1ccc2ccc(NC(=O)Nc3ccc(C(F)(F)F)cc3)cc21 [Compound 257] | 1 to 5 µM
9 | N#Cc1c[nH]c2cc(NC(=O)Nc3ccc(C(F)(F)F)cc3)ccc12 [Compound 258, 3-(3-cyano-1H-indol-6-yl)-1-[4-(trifluoromethyl)phenyl]urea] | 0.2 to 1 µM
10 | CCCCC1CCC(NC(=O)Nc2ccc3cc(Cl)[nH]c3c2)CC1 (stereo not shown) [Compound 260] | 5 to 100 µM
11 | O=C(Nc1ccc(C(F)(F)F)cc1)Nc1cc2[nH]ccc2cc1F [Compound 262] | 5 to 100 µM
12 | O=C(Nc1ccc(C(F)(F)F)cc1)Nc1ccc2c3c([nH]c2c1)CCCC3 [Compound 263] | 5 to 100 µM
13 | CN(C(=O)Nc1ccc(C(F)(F)F)cc1)c1ccc2cc[nH]c2c1 [Compound 264] | 5 to 100 µM
14 | Cc1cc2cc[nH]c2cc1NC(=O)Nc1ccc(C(F)(F)F)cc1 [Compound 265] | 5 to 100 µM
15 | Cn1ccc2ccc(NC(=O)Nc3ccc(C(F)(F)F)cc3)cc21 [Compound 268] | 5 to 100 µM
16 | CCCCC1CCC(NC(=O)Nc2ccc3cc[nH]c3c2)CC1 (stereo not shown) [Compound 271] | 0.2 to 1 µM
17 | CNC(=O)Nc1ccc2[nH]cc(NC(=O)Nc3ccc(C(F)(F)F)cc3)c2c1 [Compound 275] | 1 to 5 µM
18 | CC(C)c1ccc(-c2nnc(NC(=O)Nc3ccc4[nH]ccc4c3)s2)cc1 [Compound 279] | 5 to 100 µM
19 | O=C(Nc1ccc2[nH]ccc2c1)Nc1cc(C2CCC2)no1 [Compound 302] | 5 to 100 µM
20 | O=C(Nc1ccc2[nH]ccc2c1)Nc1cc2cccc(C(F)(F)F)n2n1 [Compound 309] | 5 to 100 µM

Continued, values first:

Row | EC50 | Structure (SMILES)
21 | 0.2 to 1 µM | Cc1cc(NC(=O)Nc2ccc3cc[nH]c3c2)ccc1C#N [Compound 227]
22 | 1 to 5 µM | O=C(Nc1cccc(OC(F)F)c1)Nc1ccc2cc[nH]c2c1 [Compound 228]
23 | 0.2 to 1 µM | O=C(Nc1cccc(S(F)(F)(F)(F)F)c1)Nc1ccc2cc[nH]c2c1 [Compound 233]
24 | 0.2 to 1 µM | CC(C)c1ccc(NC(=O)Nc2ccc3cc[nH]c3c2)cc1 [Compound 234]
25 | 0.2 to 1 µM | CCCCCCCCCCCCCCCCNC(=O)Nc1ccc2cc[nH]c2c1 [Compound 235]
26 | 0.2 to 1 µM | CCCCCCCCCCCCCCNC(=O)Nc1ccc2cc[nH]c2c1 [Compound 236]
27 | 0.2 to 1 µM | CCCCCCCCc1ccc(NC(=O)Nc2ccc3cc[nH]c3c2)cc1 [Compound 237]
28 | 0.2 to 1 µM | O=C(Nc1ccc(C2CC(F)(F)C2)c(F)c1)Nc1ccc2cc[nH]c2c1 [Compound 240]
29 | 0.2 to 1 µM | O=C(Nc1ccc(C(F)(F)F)c(Cl)c1)Nc1ccc2cc[nH]c2c1 [Compound 244]
30 | 1 to 5 µM | O=C(Nc1ccc(N2CCC(F)(F)CC2)nc1)Nc1ccc2cc[nH]c2c1 [Compound 247]
31 | 0.2 to 1 µM | O=C(Nc1ccc(OC2CC(F)(F)C2)nc1)Nc1ccc2cc[nH]c2c1 [Compound 248]
32 | 1 to 5 µM | O=C(Nc1ccnc(C(F)(F)F)c1)Nc1ccc2cc[nH]c2c1 [Compound 250]
33 | 0.04 to 0.2 µM | O=C(Nc1cc(F)cc(C(F)(F)F)c1)Nc1ccc2cc[nH]c2c1 [Compound 252]
34 | 0.04 to 0.2 µM | O=C(Nc1ccc(C(F)(F)F)c(F)c1)Nc1ccc2cc[nH]c2c1 [Compound 253]
35 | 0.2 to 1 µM | O=C(Nc1cc(Cl)cc(C(F)(F)F)c1)Nc1ccc2cc[nH]c2c1 [Compound 254]
36 | 0.2 to 1 µM | O=C(Nc1ccc2cc[nH]c2c1)Nc1ccc(C(F)(F)F)cn1 [Compound 269]
37 | 0.04 to 0.2 µM | CCCCc1cccc(NC(=O)Nc2ccc3cc[nH]c3c2)c1 [Compound 270]
38 | 0.2 to 1 µM | O=C(Nc1cccc(C(F)(F)F)c1)Nc1ccc2cc[nH]c2c1 [Compound 272]
39 | 0.2 to 1 µM | CCCCc1ccc(NC(=O)Nc2ccc3cc[nH]c3c2)cc1 [Compound 273]
40 | 5 to 100 µM | O=C(Nc1ccc(S(=O)(=O)C(F)(F)F)cc1)Nc1ccc2[nH]ccc2c1 [Compound 289]
41 | 1 to 5 µM | O=C(Nc1ccc(S(F)(F)(F)(F)F)cc1)Nc1ccc2[nH]ccc2c1 [Compound 291]

Same assay, conditions: 15 μM 2′3′cGAMP, 24h, numeric bounds

Row | Structure (SMILES) | EC50
42 | O=C(Nc1ccc(C(F)(F)F)cc1)Nc1ccc2cc(-c3ccccc3)[nH]c2c1 [Compound 256] | > 100 µM
43 | Cc1c(NC(=O)Nc2ccc(C(F)(F)F)cc2)ccc2cc[nH]c12 [Compound 259] | > 30 µM
44 | CCc1ccc(NC(=O)Nc2ccc3c(NC(=O)Nc4ccc(CC)cc4)c[nH]c3c2)cc1 [Compound 261] | > 100 µM
45 | CCCCC1CCC(NC(=O)Nc2ccc3cc(C)[nH]c3c2)CC1 (stereo not shown) [Compound 266] | > 100 µM
46 | O=C(NCC1(c2cccc(Cl)c2)CCOCC1)Nc1ccc2[nH]ccc2c1 [Compound 274] | > 30 µM
47 | N#Cc1ccc(CNC(=O)Nc2ccc3[nH]ccc3c2)c(C(F)(F)F)c1 [Compound 276] | > 30 µM
48 | O=C(Nc1cccc(S(=O)(=O)N2CCCC2)c1)Nc1ccc2[nH]ccc2c1 [Compound 282] | > 30 µM
49 | O=C(Nc1cnc2cc(C(F)(F)F)ccc2c1)Nc1ccc2[nH]ccc2c1 [Compound 285] | > 30 µM
50 | O=C(Nc1cnc2ccc(C(F)(F)F)cc2c1)Nc1ccc2[nH]ccc2c1 [Compound 286] | > 30 µM
51 | CC(Cc1cccc(C(F)(F)F)c1)NC(=O)Nc1ccc2[nH]ccc2c1 (stereo not shown) [Compound 288] | > 30 µM
52 | O=C(NCCc1ncc(C(F)(F)F)cc1Cl)Nc1ccc2[nH]ccc2c1 [Compound 290] | > 30 µM
53 | O=C(Nc1cc(F)c(N2CCC(F)(F)CC2)c(F)c1)Nc1ccc2[nH]ccc2c1 [Compound 293] | > 30 µM
54 | O=C(NCCN1CCC(Cc2ccccc2)CC1)Nc1ccc2[nH]ccc2c1 [Compound 294] | > 30 µM
55 | O=C(NCCOc1cccc(Br)c1)Nc1ccc2[nH]ccc2c1 [Compound 295] | > 30 µM
56 | O=C(NCc1ccc(OCC(F)(F)F)nc1)Nc1ccc2[nH]ccc2c1 [Compound 296] | > 30 µM
57 | CCOc1ccc(-c2cc(NC(=O)Nc3ccc4[nH]ccc4c3)on2)cc1 [Compound 297] | > 30 µM
58 | O=C(NCCCc1cncc(C(F)(F)F)c1)Nc1ccc2[nH]ccc2c1 [Compound 298] | > 30 µM
59 | O=C(Nc1ccc2[nH]ccc2c1)Nc1cc2ccc(C(F)(F)F)cn2n1 [Compound 299] | > 30 µM
60 | CCS(=O)(=O)c1ccc(CNC(=O)Nc2ccc3[nH]ccc3c2)cn1 [Compound 300] | > 30 µM
61 | CCn1cc(CNC(=O)Nc2ccc3[nH]ccc3c2)cn1 [Compound 301] | > 30 µM
62 | O=C(NCCc1ccccc1Br)Nc1ccc2[nH]ccc2c1 [Compound 304] | > 30 µM
63 | CC(C)(C)c1cc(NC(=O)Nc2ccc3[nH]ccc3c2)on1 [Compound 305] | > 30 µM
64 | N#Cc1cc(F)cc(NC(=O)Nc2ccc3[nH]ccc3c2)c1 [Compound 307] | > 30 µM
65 | N#Cc1ccc(OC2CCC(NC(=O)Nc3ccc4[nH]ccc4c3)CC2)cc1 (stereo not shown) [Compound 308] | > 30 µM

Results, then the compound that gave them:

Row | EC50 | Structure (SMILES)
66 | > 30 µM | CCc1ccccc1NC(=O)Nc1ccc2cc[nH]c2c1 [Compound 229]
67 | > 30 µM | O=C(Nc1ccc2cc[nH]c2c1)Nc1ccccc1F [Compound 230]
68 | > 30 µM | Cc1ccccc1NC(=O)Nc1ccc2cc[nH]c2c1 [Compound 231]
69 | > 67.1 µM | CN(C(=O)Nc1ccc2cc[nH]c2c1)c1ccc(C(F)(F)F)cc1 [Compound 267]
70 | > 30 µM | O=C(Nc1ccc(Oc2c(F)cccc2F)cc1)Nc1ccc2[nH]ccc2c1 [Compound 278]
71 | > 30 µM | O=C(Nc1ccc2[nH]ccc2c1)Nc1ccc2[nH]ccc2c1 [Compound 283]
72 | > 30 µM | O=C(Nc1ccc(S(=O)(=O)N2CCCC2)cc1)Nc1ccc2[nH]ccc2c1 [Compound 284]
73 | > 30 µM | O=C(Nc1ccc2nc(C(F)(F)F)ccc2c1)Nc1ccc2[nH]ccc2c1 [Compound 287]
74 | > 30 µM | CN(C)S(=O)(=O)c1ccc(NC(=O)Nc2ccc3[nH]ccc3c2)cc1 [Compound 292]
75 | > 30 µM | O=C(Nc1cccc(C(F)F)c1)Nc1ccc2[nH]ccc2c1 [Compound 303]
76 | > 30 µM | Cn1cc(NC(=O)Nc2ccc3[nH]ccc3c2)cn1 [Compound 306]
